# Active and inactive are the calls of the source.
# Key:
# [1] = inhibitors of intracellular T. cruzi replication, confirmation, NIH3T3 host cells, beta-gal luminescence (AID 2044); format: functional, cell-based;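 further: intracellular parasites grown in NIH/3T3 mouse fibroblasts as host cells; luminescent beta-galactosidase reporter signal from transgenic T. cruzi replicating inside host cells; inhibitors lower the luminescence signal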
# [2] = cytotoxicity toward NIH3T3 fibroblasts, dose response, counter-screen, cell-based, ATP luminescence, mouse fibroblasts (AID 2010); format: functional;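 further: cells exposed to compound for about 90 hours before reading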
# [3] = HEp-2 cell cytotoxicity, dose response, cytotoxicity control for RSV inhibitor project, HTS (AID 2410); format: functional; details: human respiratory syncytial virus
# [4] = biological target: Cytochrome P450 2C9 (Homo sapiens, UniProt P11712)
# [5] = biological target: Cytochrome P450 2C19 (Homo sapiens, UniProt P33261); assay: Cytochrome panel assay with activity outcomes. Panel member name: p450-cyp2c19 Compounds with AC50 equal or less than 10 uM are considered active; format: functional
# [6] = system: Streptococcus sp. 'group A'; assay: growth inhibition of control SK(-) GAS strain, dose response, counter-screen for streptokinase expression inhibitor project, luminescence, kanamycin, BacTiterGlo, confirmation (AID 1900); format: functional, organism-based
# [7] = system: Streptococcus; assay: Group A Streptococcus viability loss, dose response, counter-screen for streptokinase expression inhibitor project, luminescence, BacTiterGlo (AID 1915); format: functional, organism-based;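 further: potency for reduction of bacterial viability or growth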
# [8] = biological target: Cytochrome P450 3A4 (Homo sapiens, UniProt P08684);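 further: CYP3A4 tested as one member of a cytochrome P450 panel screen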
# [9] = biological target: T1, Rac GTPase-activating protein 1 (Homo sapiens, UniProt Q9H0H5); assay: MgcRacGAP GTPase-activating activity inhibitors, confirmation, biochemical, ADP Hunter fluorescence, primary and confirmatory (AID 624330); format: functional
# T1 sequence (Q9H0H5 whole entry): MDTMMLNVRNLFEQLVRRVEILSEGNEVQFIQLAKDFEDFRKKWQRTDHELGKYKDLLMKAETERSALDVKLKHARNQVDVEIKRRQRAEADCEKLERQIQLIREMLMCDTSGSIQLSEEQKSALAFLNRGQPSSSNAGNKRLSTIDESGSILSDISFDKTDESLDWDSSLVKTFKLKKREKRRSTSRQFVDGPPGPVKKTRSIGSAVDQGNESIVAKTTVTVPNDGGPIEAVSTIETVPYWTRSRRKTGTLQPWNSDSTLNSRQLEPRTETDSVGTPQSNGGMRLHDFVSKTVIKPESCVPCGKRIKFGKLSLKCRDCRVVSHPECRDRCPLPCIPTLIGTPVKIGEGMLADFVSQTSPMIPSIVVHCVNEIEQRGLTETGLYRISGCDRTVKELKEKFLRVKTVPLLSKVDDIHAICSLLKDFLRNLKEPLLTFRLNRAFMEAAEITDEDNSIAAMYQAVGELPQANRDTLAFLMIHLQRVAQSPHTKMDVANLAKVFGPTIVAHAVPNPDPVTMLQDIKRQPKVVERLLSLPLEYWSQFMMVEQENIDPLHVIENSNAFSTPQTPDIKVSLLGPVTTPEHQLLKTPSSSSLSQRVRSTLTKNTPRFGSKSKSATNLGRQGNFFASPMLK
# [10] = biological target: T2, Protein RecA (Mycobacterium tuberculosis, UniProt P9WHJ3); assay: Fluorescence Cell-Free Homogeneous Dose Retest to Identify Inhibitors of RecA-Intein Splicing Activity. [Related pubchem assays (depositor defined):AID2097, AID2223, AID489010, AID492950]; format: functional
# T2 sequence (P9WHJ3 whole entry): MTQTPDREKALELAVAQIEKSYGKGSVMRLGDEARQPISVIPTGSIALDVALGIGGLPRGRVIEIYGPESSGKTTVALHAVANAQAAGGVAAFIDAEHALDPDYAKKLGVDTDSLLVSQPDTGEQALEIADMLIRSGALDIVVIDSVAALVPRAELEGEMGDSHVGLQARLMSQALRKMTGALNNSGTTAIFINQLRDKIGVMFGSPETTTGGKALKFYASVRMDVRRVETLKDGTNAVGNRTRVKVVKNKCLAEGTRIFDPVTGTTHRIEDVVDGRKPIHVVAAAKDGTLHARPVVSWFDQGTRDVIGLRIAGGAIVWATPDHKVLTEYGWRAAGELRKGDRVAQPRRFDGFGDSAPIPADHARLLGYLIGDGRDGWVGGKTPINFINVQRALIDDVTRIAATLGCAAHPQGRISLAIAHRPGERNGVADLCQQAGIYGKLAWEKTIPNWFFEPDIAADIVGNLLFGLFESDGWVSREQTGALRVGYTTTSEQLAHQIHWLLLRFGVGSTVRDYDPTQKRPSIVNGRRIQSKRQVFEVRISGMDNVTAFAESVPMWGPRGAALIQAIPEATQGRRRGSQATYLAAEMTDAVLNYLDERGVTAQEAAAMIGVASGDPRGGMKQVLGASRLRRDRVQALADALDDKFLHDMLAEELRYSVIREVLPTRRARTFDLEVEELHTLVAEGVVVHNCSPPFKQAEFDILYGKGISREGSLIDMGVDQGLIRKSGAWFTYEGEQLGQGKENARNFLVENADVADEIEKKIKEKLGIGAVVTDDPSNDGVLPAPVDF
# Chain of Cytochrome P450 2C9 (P11712 whole entry): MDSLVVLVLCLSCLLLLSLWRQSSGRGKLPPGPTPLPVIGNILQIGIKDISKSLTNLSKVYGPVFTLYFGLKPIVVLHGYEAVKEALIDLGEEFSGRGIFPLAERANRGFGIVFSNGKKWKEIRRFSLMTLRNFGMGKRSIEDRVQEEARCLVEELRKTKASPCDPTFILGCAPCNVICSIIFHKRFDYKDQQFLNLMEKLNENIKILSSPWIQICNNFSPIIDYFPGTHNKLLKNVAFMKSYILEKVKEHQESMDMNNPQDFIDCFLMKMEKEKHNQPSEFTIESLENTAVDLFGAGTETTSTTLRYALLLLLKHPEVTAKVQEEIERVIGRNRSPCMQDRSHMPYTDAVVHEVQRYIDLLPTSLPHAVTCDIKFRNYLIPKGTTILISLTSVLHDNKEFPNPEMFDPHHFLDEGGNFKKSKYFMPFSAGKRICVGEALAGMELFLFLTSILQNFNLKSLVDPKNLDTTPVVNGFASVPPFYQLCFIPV
# Chain of Cytochrome P450 2C19 (P33261 whole entry): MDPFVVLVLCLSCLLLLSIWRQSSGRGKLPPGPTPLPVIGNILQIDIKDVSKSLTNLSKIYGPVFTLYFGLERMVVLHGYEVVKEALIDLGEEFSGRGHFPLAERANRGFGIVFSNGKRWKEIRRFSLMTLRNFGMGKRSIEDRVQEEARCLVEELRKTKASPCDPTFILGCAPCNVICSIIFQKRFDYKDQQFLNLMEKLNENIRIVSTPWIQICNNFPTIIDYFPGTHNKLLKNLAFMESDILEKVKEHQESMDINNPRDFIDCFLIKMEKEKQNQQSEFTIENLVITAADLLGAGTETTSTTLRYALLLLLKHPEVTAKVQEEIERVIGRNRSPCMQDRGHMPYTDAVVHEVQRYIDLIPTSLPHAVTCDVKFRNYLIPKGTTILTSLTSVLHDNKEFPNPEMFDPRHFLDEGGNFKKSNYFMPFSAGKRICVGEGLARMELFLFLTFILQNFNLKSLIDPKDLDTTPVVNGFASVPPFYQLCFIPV
# Chain of Cytochrome P450 3A4 (P08684 whole entry): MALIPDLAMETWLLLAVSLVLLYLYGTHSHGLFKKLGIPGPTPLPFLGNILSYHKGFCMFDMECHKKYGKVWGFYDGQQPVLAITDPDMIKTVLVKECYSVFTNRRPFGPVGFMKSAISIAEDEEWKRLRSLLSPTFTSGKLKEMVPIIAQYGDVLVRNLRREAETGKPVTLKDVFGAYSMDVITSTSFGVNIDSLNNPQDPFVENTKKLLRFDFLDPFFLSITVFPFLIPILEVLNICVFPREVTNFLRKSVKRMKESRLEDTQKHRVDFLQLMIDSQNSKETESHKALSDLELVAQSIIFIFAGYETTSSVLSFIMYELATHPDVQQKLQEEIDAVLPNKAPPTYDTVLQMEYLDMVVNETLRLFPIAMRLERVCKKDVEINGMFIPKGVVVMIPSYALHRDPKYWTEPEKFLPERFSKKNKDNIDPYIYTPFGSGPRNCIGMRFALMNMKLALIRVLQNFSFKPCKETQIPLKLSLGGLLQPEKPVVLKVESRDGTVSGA
smiles,measurement,setting,value
Cc1ccc(O)c(C(=O)c2cc(C(=O)NCCc3ccccc3)c(=O)n(CCc3ccccc3)c2)c1,EC50,[1],2.02 µM (active)
same,EC50,[2],> 30 µM (not active)
O=C(COC(=O)c1c2ccccc2cc2ccccc12)NCC(F)(F)F,CC50,[3],23.6 µM (active)
CCN(C(=O)CSc1nnc(Cn2nnc3ccccc32)o1)c1nc(-c2ccccc2)cs1,CC50,[3],26.4 µM (active)
O=C(CN1CCN(c2nc(-c3ccccc3)cs2)CC1)NCc1ccc2c(c1)OCO2,CC50,[3],11 µM (active)
O=C(O)[C@H](Cc1cc(I)c(O)c(I)c1)C1CCCCC1,AC50,[4],3.16 µM (inconclusive)
same,AC50,[5]; read-out: AC50,2 µM (inconclusive)
CCC(C#CCN1CCCCC1)(CC)OCCC#N,AC50,[4],0.355 µM (inconclusive)
COc1ccc2c(c1OC)C(=O)OC2Nc1ncccc1C (stereo not given),AC50,[5]; read-out: AC50,39.8 µM (inconclusive)
CCOC(=O)c1cnc2cc(-c3ccc(C(C)(C)C)cc3)nn2c1N,AC50,[4],3.16 µM (inconclusive)
COc1ccc(CSCCN=C(S)Nc2ccccc2)cc1Cl,EC50,[6],18.5 µM (active)
same,EC50,[7],> 150 µM (not active)
COc1ccc(C(=O)CC(=O)C(=O)Nc2ccccc2C(F)(F)F)cc1,EC50,[6],3.52 µM (active)
same,EC50,[7],8.59 µM (active)
CS(=O)(=O)N1CCN(c2ccc([N+](=O)[O-])c(NCc3ccccc3)c2)CC1,AC50,[5]; read-out: AC50,31.6 µM (inconclusive)
same,AC50,[8],31.6 µM (inconclusive)
Cc1ccc2nc(NC(=O)COC(=O)CSc3nc(C)cc(C)n3)sc2c1,AC50,[5]; read-out: AC50,5.01 µM (inconclusive)
Cc1ccc(-n2cnc3cc(NCc4cccs4)ccc32)cc1,CC50,[3],25.3 µM (active)
COc1ccc(NC(=O)CSc2nc(-c3ccc(C)cc3)cc(C(F)(F)F)c2C#N)cc1,AC50,[5]; read-out: AC50,20 µM (inconclusive)
COc1cc(/C=C/CN2CCC(CO)(CC3CCCCO3)CC2)ccc1O (stereo not given),IC50,[9],91.2 µM (active)
C=CCOC(=O)C1=C(C)NC(=O)NC1c1ccc(OC(=O)c2ccco2)c(OC)c1 (stereo not given),EC50,[10],18 µM (active)
CCCC(=O)Nc1nc(C(=O)OCC)cs1,AC50,[5]; read-out: AC50,39.8 µM (inconclusive)
CCc1cccc(Nc2c([N+](=O)[O-])nn(-c3ccc4c(c3)OCCO4)[n+]2[O-])c1,EC50,[1],0.272 µM (active)
same,EC50,[2],> 60 µM (inconclusive)
O=C(CN1CCN(C(c2ccccc2)c2ccccc2)CC1)N1CCN(c2ccccc2)CC1,CC50,[3],23.9 µM (active)
COc1ccc(NC2CCCN(C(=O)c3oc(C)cc3C)C2)cc1OC (stereo not given),IC50,[9],159 µM (active)
Cc1cc(C)c2c(CN3CCN(Cc4ccc5c(c4)OCO5)CC3)cc(=O)oc2c1,CC50,[3],16.8 µM (active)
COc1ncc2nc(CCc3ccccc3)c(=O)n(C3CC3)c2n1,AC50,[8],31.6 µM (inconclusive)
O=C(NC(Nc1cc(C(F)(F)F)ccc1Cl)C(=O)c1ccccc1)c1ccccc1 (stereo not given),EC50,[1],2.17 µM (active)
same,EC50,[2],> 30 µM (not active)
CCCc1nc2c(c(=O)c3ccccc3n2C)c(=O)n1-c1cc(C)cc(C)c1,CC50,[3],> 50 µM (active)
COC(=O)C(O)(c1c(C)[nH]c2ccccc12)C(F)(F)F (stereo not given),AC50,[4],3.16 µM (inconclusive)
same,AC50,[8],22.4 µM (inconclusive)
COc1ccc(N(C(=O)Cn2nnc3ccccc32)C2(C(=O)NC3CCCC3)CCCCC2)cc1,AC50,[4],22.4 µM (inconclusive)
same,AC50,[5]; read-out: AC50,14.1 µM (inconclusive)
COCCNc1nc(-c2ccc(C(=O)N(C)C)cc2)nc2ccccc12,AC50,[8],15.8 µM (inconclusive)
Cc1nnc(SCC2=C(C(=O)O)N3C(=O)C(NC(=O)C(C)n4nc(C(F)(F)F)cc4C)C3SC2)s1 (stereo not given),EC50,[6],0.201 µM (active)
same,EC50,[7],0.421 µM (active)
Cc1nc2cnc(Oc3cccc(Cl)c3)nc2n(CCC#N)c1=O,AC50,[4],39.8 µM (inconclusive)
Cc1ccc(CN2CCN(CC(=O)N=Nc3c(O)[nH]c4ccccc34)CC2)cc1,EC50,[1],1.08 µM (active)
same,EC50,[2],> 60 µM (not active)
Cc1ccc(-c2csc(NCCc3nc4cc(Cl)c(Cl)cc4n3CCCO)n2)cc1,CC50,[3],28.9 µM (active)
COCC(C)n1c(C)cc(C(=O)COC(=O)c2c(C)nn(-c3ccccc3)c2C)c1C (stereo not given),CC50,[3],29.2 µM (active)
Cc1nn2cc(-c3ccc(N)cc3)nc2s1,IC50,[9],110 µM (active)
COc1ccc(C(=O)CN2C(=O)NC(C)(c3ccccc3)C2=O)cc1OC (stereo not given),AC50,[5]; read-out: AC50,39.8 µM (inconclusive)
same,AC50,[8],4.47 µM (inconclusive)
Nc1ncnc2c1ncn2[C@@H]1O[C@@H](C(=O)NC2CC2)[C@H](O)[C@@H]1O,AC50,[8],1 µM (inconclusive)
C/C(CCN1CCc2nc(-c3ccccc3)c(-c3ccccc3)cc2C1)=N\OC[C@@H](O)[C@@H]1O[C@@H]2OC(C)(C)O[C@@H]2[C@H]1O,AC50,[8],3.98 µM (inconclusive)
CNc1nc(-c2ccc3c(c2)CCN3C(=O)c2ccccc2C)cs1,CC50,[3],14.9 µM (active)
Cn1c(O)c(C(c2ccccn2)c2c(O)n(C)c(=S)n(C)c2=O)c(=O)n(C)c1=S,AC50,[4],1.58 µM (inconclusive)
O=C(COc1ccccc1)Nc1ccc2[nH]c(O)nc2c1,CC50,[3],26 µM (active)
COc1ccc(NC(S)=NC(=NCS(=O)(=O)c2ccccc2)c2ccccc2)cc1,CC50,[3],24.6 µM (active)
N=C(N)CCNC(=O)[C@@H]1CCC(N)=N1.O=S(=O)(O)O,AC50,[5],inconclusive
O=C1[C@H]2[C@@H](c3ccc(F)cc3)N3C(=O)N(c4ccc(C(F)(F)F)cc4)C(=O)[C@@]3(Cc3ccccc3)[C@H]2C(=O)N1C1CCCCC1,CC50,[3],> 50 µM (active)
O=C(NCc1ccco1)c1nc(O)c2nnn(Cc3cccc(Cl)c3)c2n1,AC50,[4],15.8 µM (inconclusive)
COc1ccccc1N1CCN(CC(=O)NCC2CCCO2)CC1 (stereo not given),IC50,[9],51.9 µM (active)
Cc1[nH]nc(-c2ccc(OCc3cnn(-c4ccccc4)c3)cc2O)c1Oc1ccccc1F,AC50,[8],8.91 µM (inconclusive)
Oc1ccc(Br)cc1Cn1nnc2ccccc21,CC50,[3],30 µM (active)
COc1cc(CN2CCN(Cc3ccc(C(F)(F)F)cc3)CC2)cc(OC)c1OC,IC50,[9],122 µM (active)
O=C(NC1CCCC1)c1ccc([N+](=O)[O-])s1,EC50,[1],0.546 µM (active)
same,EC50,[2],5.25 µM (active)
COc1ccc(CCNCc2ccccc2)cc1,IC50,[9],134 µM (active)
COCCn1c(=O)c(-c2cccs2)nc2cnc(OC)nc21,AC50,[4],39.8 µM (inconclusive)
same,AC50,[5]; read-out: AC50,20 µM (inconclusive)
COc1cccc([C@@H]2Oc3ccc(OC)cc3/C(=N/O[C@@H](C)CN3CCCc4nc(C)c(C)cc43)[C@@H]2O)c1,AC50,[4],2 µM (inconclusive)
same,AC50,[5]; read-out: AC50,0.251 µM (inconclusive)
COc1ccc(NC(=O)c2nc[nH]n2)cc1,AC50,[4],0.708 µM (inconclusive)
same,AC50,[5]; read-out: AC50,31.6 µM (inconclusive)
OC1CNc2c(ccc3ccccc23)C1 (stereo not given),IC50,[9],18.4 µM (active)
COc1ccccc1CNC(=O)C[C@@H]1C[C@H]2c3cc(N(C)C)ccc3O[C@H]2[C@H](CO)O1,IC50,[9],153 µM (active)
COc1cc(/C=N/N=C2/SCC(=O)N2c2ccc(O)cc2)ccc1O,IC50,[9],65 µM (active)
C/C(CC(=O)NC1CCCC1)=N\NC(=O)Cc1cccs1,AC50,[8],12.6 µM (inconclusive)
CCN1CCN(c2ccc(/N=C/c3ccc(O)cc3O)cc2)CC1,IC50,[9],28 µM (active)
O=C(CCC(=O)Nc1ccc(F)cc1)N/N=C/c1ccc(O)cc1,IC50,[9],62.8 µM (active)
Cc1ccc(S(=O)(=O)Nc2ccc(NC(=O)CN3CCCCC3)c(Cl)c2)cc1,CC50,[3],24.8 µM (active)

# Reference: ChEMBL document CHEMBL1201862, “PubChem BioAssay data set” (2004)
